Patent US20260207388A1, “WOUND DRESSING” (ConvaTec Limited, priority 2023, published 2026)

Columns and labels:
Details in all cases: EDTA at concentrations of 0.1-40 wt. % by volume
Pseudomonas aeruginosa = system: Pseudomonas aeruginosa
Serratia marcescens = system: Serratia marcescens
[1] = system: vancomycin resistant Enterococcus (VRE)
[2] = system: methicillin resistant Staphylococcus aureus (MRSA)

Measured: killing of microorganisms in the planktonic and biofilm state

O=C(O)CN(CCN(CC(=O)O)CC(=O)O)CC(=O)O [EDTA, ethylenediaminetetra-acetic acid]
effectively killed: all assays above
